pIC50: −log10 of the molar value.
What was measured:
[1] = biological target: BTK (Homo sapiens, UniProt Q06187); assay: Kinase panel: BTK; type: biochemical; conditions: 10 μM EP009
Method: (§1) Achieving JAK3 selectivity remains a significant challenge in the development of new small molecules for the treatment of cancer and immune-derived diseases. As such, the inventors employed cell-based screening assays of small-molecule libraries based upon the chemical scaffold of the established JAK3 inhibitor NC1153 (Stepkowski et al., J Immunol. (2005), 175(7):4236-4246) EP009 (FIG. 2A) was selected as a lead compound due to improved intrinsic stability (>95% purity in various solvents at 37° C. for 24 hours; FIG. 3) and high-degree of JAK3 selectivity. To test JAK3 versus JAK2 specificity of EP009, the IL-2/JAK3-dependent Kit225, and IL-3/JAK2-dependent BaF/3 cell lines were used. Kit225 and BaF/3 cells growing in the presence of IL-2 or IL-3, respectively, were treated with ascending concentrations of EP009 for 12 hours and cellular JAK3 and JAK2 tyrosine phosphorylation levels detected by Western blot analysis (FIGS. 2B and 2C). Following densitometric analysis, EP009 was determined to dose-dependently reduce IL-2-mediated JAK3 tyrosine phosphorylation with a cellular 50% inhibitory concentration (IC50) between 10 and 20 μM (FIG. 2B). […] To globally evaluate specificity, the inhibitory activity of EP009 was measured against a panel of protein kinases distributed throughout the kinome using the scanEDGE profiling service (KINOMEscan). […]

[2] = biological target: FGFR2 (Homo sapiens, UniProt P21802); assay: Kinase panel: FGFR2; type: biochemical; conditions: 10 μM EP009
Method: as §1

[3] = system: CREB; assay: Phospho-CREB in SU-DHL-1 cells (Luminex multiplex); type: cell-based, human; conditions: 24 hours
Method: FIGS. 8A-8F. Effect of EP009 on ALCL cells is mediated through selective activation of ERK1/2 and JNK1/2 stress signaling pathways, and inhibition of p70 S6 kinase growth signaling pathways. SU-DHL-1 cells were treated with vehicle (PBS) or increasing amounts of EP009 (0-50 μM) for 24 hours. Cells were then lysed, clarified, and subjected to Luminex multiplex analysis to detect phosphorylated (A) ERK1/2, (B) JNK1/2, (C) p70 S6 kinase, (D) IκBα, (E) CREB, and (F) p38. Values represent mean fluorescence intensity (MFI) normalized to corresponding GAPDH MFI, while error bars represent the standard deviation (n=2). Representative data from two independent experiments are shown. Statistical significance was determined using Student's t-test. (*, p<0.05).
The MILLIPLEX MAP 8-plex Multi-Pathway Signaling Phosphoprotein kit (Millipore) was used to detect phosphorylated ERK1/2 (Thr185/Tyr187), STAT3 (Ser727), JNK1/2 (Thr183/Tyr185), p70 S6 kinase (Thr412), IκBα (Ser32), STAT5A/B (Tyr694/699), CREB (Ser133), and p38 (Thr180/Tyr182). The MILLIPLEX MAP 5-plex STAT Phosphoprotein kit (Millipore) was used to detect phosphorylated STAT1 (Tyr701), STAT2 (Tyr690), STAT3 (Tyr705), STAT5A/B (Tyr694/699), and STAT6 (Tyr641). The MILLIPLEX MAP Human Apoptosis 3-plex kit (Millipore) was used to detect cleaved PARP, cleaved Caspase 3, and total GAPDH for protein normalization.

[4] = biological target: ACVR1B (Homo sapiens, UniProt P36896); assay: Kinase panel: ACVR1B; type: biochemical; conditions: 10 μM EP009
Method: as §1

[5] = biological target: PLK3 (Homo sapiens, UniProt Q9H4B4); assay: Kinase panel: PLK3; type: biochemical; conditions: 10 μM EP009
Method: as §1

[6] = biological target: RET (Homo sapiens, UniProt P07949); assay: Kinase panel: RET; type: biochemical; conditions: 10 μM EP009
Method: as §1

[7] = biological target: ABL1-phosphorylated (Homo sapiens, UniProt P00519); assay: Kinase panel: ABL1-phosphorylated; type: biochemical; conditions: 10 μM EP009
Method: as §1

[8] = system: SUP-M2 cells; assay: SUP-M2 cell viability (MTS); type: cell-based; conditions: Homo sapiens; SUP-M2, 72 hours
Method: FIGS. 7A-7C. EP009 reduces ALCL cell viability through induction of caspase 3 mediated apoptosis. (A) SUP-M2, SU-DHL-1 or H2228 cells were cultured with increasing amounts of EP009 (0-10 μM) for 72 hours and cell viability measured with the MTS tetrazolium salt assay. Values represent mean absorbance (OD490-OD650 nm) normalized to vehicle (PBS) treated control cells, while error bars represent the standard deviation (n=3). (B) SU-DHL-1 cells were treated with vehicle (PBS) or increasing amounts of EP009 (0-50 μM) for 24 hours. Cells were then lysed, clarified, and subjected to Luminex multiplex analysis to detect activated caspase 3 and (C) cleaved PARP. Values represent MFI normalized to corresponding GAPDH MFI, while error bars represent the standard deviation (n=2). Representative data from three independent experiments are shown. Statistical significance was determined using Student's t-test. (*, p<0.05).
Cell viability was assessed with 3-(4,5-dimethylthiazol-2-yl)-5-(3-carboxymethoxyphenyl)-2-(4-sulfophenyl)-2H-tetrazolium salt (MTS) reagent (Promega) in triplicates according to the manufacturer's instructions. Three independent experiments were performed. The error bars represent standard deviation.

[9] = biological target: FGFR3 (Homo sapiens, UniProt P22607); assay: Kinase panel: FGFR3; type: biochemical; conditions: 10 μM EP009
Method: as §1

[10] = biological target: IKK-alpha (Homo sapiens, UniProt O15111); assay: Kinase panel: IKK-alpha; type: biochemical; conditions: 10 μM EP009
Method: as §1

Sequence of FGFR3 (P22607 23-806): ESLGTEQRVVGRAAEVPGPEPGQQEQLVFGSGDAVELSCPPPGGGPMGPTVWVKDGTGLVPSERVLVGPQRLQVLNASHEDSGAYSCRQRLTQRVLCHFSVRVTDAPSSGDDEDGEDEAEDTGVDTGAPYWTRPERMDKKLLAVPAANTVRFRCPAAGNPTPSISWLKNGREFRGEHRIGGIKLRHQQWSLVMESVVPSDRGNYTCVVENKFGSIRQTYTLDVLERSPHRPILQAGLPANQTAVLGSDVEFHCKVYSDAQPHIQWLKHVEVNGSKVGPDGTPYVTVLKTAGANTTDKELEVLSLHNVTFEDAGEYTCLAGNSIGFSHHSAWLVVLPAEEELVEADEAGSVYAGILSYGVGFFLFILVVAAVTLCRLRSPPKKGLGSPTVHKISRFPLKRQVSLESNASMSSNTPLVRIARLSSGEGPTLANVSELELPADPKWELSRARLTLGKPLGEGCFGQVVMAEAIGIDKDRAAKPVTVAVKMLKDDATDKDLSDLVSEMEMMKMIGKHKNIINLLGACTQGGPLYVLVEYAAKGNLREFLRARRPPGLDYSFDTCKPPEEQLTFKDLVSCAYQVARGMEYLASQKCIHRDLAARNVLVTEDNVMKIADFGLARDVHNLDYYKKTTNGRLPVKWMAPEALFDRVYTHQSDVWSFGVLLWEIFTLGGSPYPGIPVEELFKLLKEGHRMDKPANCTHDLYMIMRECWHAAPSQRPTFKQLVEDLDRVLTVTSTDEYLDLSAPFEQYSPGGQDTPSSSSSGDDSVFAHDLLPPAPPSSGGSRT
Sequence of ABL1-phosphorylated (P00519 whole entry): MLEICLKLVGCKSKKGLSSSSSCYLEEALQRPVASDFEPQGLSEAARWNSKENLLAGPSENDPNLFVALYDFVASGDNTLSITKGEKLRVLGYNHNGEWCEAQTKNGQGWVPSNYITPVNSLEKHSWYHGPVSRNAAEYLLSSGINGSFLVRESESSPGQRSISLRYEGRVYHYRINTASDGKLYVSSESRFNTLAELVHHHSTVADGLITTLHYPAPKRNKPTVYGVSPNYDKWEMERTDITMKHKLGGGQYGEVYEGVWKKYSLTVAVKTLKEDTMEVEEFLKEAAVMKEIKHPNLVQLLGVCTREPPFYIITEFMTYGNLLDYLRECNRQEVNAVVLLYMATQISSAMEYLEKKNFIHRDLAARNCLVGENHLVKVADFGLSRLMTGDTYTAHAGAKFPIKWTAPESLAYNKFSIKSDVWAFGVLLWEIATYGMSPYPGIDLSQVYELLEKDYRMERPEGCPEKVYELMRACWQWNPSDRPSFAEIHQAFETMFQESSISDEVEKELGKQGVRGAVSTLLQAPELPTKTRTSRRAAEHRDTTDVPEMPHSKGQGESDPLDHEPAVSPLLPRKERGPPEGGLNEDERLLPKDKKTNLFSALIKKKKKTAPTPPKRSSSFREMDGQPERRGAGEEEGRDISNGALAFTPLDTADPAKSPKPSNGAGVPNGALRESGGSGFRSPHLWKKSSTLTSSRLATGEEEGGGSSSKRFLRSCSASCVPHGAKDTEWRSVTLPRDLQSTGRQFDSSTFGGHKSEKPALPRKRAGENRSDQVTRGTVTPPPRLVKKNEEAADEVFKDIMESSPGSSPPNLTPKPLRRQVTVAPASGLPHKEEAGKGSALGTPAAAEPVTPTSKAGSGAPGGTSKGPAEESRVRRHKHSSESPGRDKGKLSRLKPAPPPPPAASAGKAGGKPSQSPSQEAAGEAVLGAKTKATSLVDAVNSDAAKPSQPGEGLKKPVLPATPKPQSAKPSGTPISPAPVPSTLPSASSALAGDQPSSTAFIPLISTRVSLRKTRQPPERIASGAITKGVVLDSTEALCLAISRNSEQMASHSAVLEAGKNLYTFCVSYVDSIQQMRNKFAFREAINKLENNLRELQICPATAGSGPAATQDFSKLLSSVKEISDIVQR
Sequence of ACVR1B (P36896 24-505): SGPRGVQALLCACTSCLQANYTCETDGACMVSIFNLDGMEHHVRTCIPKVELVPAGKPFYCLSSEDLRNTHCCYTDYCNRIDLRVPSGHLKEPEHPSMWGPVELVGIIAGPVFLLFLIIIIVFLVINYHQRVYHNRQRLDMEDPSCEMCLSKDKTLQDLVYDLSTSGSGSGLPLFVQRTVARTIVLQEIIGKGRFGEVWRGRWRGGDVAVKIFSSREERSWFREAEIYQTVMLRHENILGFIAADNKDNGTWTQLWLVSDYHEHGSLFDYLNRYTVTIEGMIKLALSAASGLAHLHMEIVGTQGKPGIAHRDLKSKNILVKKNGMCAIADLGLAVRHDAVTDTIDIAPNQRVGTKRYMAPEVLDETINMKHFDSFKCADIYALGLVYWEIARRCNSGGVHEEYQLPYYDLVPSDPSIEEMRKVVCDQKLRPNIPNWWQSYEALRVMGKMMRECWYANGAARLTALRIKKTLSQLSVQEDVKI
Sequence of BTK (Q06187 whole entry): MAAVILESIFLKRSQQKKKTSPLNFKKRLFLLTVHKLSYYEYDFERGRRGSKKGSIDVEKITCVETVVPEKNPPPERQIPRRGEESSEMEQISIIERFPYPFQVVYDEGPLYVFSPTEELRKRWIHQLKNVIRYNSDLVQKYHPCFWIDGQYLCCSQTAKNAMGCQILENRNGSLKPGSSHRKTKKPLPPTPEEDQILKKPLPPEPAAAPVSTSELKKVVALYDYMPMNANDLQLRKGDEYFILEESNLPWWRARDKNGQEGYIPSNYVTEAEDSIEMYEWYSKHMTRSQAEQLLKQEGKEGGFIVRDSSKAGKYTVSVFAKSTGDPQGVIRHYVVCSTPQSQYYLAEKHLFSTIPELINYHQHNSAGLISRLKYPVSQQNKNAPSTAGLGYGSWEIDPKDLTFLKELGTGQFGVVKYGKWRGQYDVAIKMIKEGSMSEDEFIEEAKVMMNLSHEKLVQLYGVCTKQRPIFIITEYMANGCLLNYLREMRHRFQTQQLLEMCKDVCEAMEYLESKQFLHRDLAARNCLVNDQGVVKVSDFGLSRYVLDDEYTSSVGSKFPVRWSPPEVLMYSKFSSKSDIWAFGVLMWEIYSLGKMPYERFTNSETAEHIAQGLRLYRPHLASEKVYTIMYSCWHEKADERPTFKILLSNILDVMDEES
Sequence of FGFR2 (P21802 22-821): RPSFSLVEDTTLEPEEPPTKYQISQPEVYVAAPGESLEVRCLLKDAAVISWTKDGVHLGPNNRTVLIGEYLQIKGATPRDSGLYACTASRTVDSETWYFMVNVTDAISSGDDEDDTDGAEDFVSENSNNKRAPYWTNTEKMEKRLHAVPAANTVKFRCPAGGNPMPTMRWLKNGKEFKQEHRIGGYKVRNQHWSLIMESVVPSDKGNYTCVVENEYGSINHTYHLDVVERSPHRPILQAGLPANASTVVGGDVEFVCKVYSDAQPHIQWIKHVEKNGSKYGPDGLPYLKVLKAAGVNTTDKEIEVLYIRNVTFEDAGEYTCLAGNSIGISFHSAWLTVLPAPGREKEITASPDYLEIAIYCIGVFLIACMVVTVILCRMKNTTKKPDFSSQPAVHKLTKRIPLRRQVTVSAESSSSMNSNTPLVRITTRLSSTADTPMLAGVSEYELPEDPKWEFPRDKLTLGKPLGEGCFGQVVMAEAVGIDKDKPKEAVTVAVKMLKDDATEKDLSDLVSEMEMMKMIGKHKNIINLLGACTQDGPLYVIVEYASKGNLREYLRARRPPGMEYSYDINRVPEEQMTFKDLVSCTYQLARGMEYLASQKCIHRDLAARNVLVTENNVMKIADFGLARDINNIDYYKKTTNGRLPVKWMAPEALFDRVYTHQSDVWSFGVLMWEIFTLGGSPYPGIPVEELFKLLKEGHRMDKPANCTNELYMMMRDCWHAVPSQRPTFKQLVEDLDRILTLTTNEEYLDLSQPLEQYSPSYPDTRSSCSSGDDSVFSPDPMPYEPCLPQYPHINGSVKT
Sequence of PLK3 (Q9H4B4 whole entry): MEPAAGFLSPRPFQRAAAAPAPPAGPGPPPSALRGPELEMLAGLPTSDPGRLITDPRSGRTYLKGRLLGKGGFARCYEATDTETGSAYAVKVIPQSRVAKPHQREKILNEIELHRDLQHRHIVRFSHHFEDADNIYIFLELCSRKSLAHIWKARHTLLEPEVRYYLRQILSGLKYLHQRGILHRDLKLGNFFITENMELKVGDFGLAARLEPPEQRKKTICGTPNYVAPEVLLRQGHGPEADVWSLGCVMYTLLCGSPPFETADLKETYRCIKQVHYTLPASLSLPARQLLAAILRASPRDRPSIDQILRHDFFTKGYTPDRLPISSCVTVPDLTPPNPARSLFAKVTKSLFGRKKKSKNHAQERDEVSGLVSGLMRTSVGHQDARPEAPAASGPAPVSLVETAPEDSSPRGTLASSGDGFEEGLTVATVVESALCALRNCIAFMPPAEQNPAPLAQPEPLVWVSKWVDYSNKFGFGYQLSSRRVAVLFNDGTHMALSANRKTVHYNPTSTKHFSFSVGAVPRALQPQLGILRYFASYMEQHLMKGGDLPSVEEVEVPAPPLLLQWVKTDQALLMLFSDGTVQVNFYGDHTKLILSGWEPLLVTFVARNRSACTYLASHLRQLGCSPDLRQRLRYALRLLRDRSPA

## C=C1CCCCCCCCCC(CO)C1=O (stereo not shown) [EP009, 2-(Hydroxymethyl)-12-methylenecyclododecanone]
[1]
  Kinase Activity (% of Control): 91 % of Control
[2]
  Kinase Activity (% of Control): 100 % of Control
[3]
  CREB phosphorylation status: No statistically significant change
[4]
  Kinase Activity (% of Control): 96 % of Control
[5]
  Kinase Activity (% of Control): 92 % of Control
[6]
  Kinase Activity (% of Control): 100 % of Control
[7]
  Kinase Activity (% of Control): 100 % of Control
[8]
  pIC50: 5.30
[9]
  Kinase Activity (% of Control): 100 % of Control
[10]
  Kinase Activity (% of Control): 87 % of Control

Reference: patent publication US9371265B2, “Compositions and methods related to inhibitors of JAK kinase” (EP PHARMA, INC., priority 2012, dated 2016)
